From US8674118B2, “Compounds and methods for the treatment or prevention of flavivirus infections” (priority 2005, dated 2014)

Tested on: HCV RNA replication (replicon cell lines Huh-7, 5.2 and ET)
Assay: Cell-Based Luciferase Reporter HCV RNA Replication Assay
Conditions: Hepatitis C virus, Huh-7, 96 h, Huh-7, 5.2 or ET replicon cells, luciferase counts after 4 days incubation; read-out: IC50

| SMILES | IC50 |
| --- | --- |
| CC1CCC(C(=O)N(c2cc(C3=CCCCC3)sc2C(=O)O)C2CCC3CCCCC3C2)CC1 (mixture of isomers) [Compound 65, 5-cyclohex-1-enyl-3-[(cis/trans-decahydro-naphthalen-2-yl)-(4-trans-methyl-cyclohexanecarbonyl)-amino]-thiophene-2-carboxylic acid] | < 5 µM |
| CC1CCC(C(=O)N(c2cc(C3CCC(O)CC3)sc2C(=O)O)C2CCC(O)CC2)CC1 (mixture of isomers) [Compound 85, 5-(4-cis/trans-hydroxy-cyclohexyl)-3-[(4-trans-hydroxy-cyclohexyl)-(4-trans-methyl-cyclohexanecarbonyl)-amino]-thiophene-2-carboxylic acid] | 5 to 25 µM |
| COCC1CCC(N(C(=O)C2CCC(C)CC2)c2cc(C3=CCCCC3)sc2C(=O)O)CC1 (mixture of isomers) [Compound 126, 5-cyclohex-1-enyl-3-[(4-cis/trans-methoxymethyl-cyclohexyl)-(4-trans-methyl-cyclohexanecarbonyl)-amino]-thiophene-2-carboxylic acid] | < 5 µM |
| CC1CC=C(c2cc(N(C(=O)[C@H]3CC[C@H](C)CC3)[C@H]3CC[C@H](O)CC3)c(C(=O)O)s2)CC1 (relative stereo) [Compound 4, 3-[(trans-4-Hydroxy-cyclohexyl)-(trans-4-methyl-cyclohexanecarbonyl)-amino]-5-(4-methyl-cyclohex-1-enyl)-thiophene-2-carboxylic acid] | < 5 µM |
| CC(C)(C)C1CC=C(c2cc(N(C(=O)[C@H]3CC[C@H](C)CC3)[C@H]3CC[C@H](O)CC3)c(C(=O)O)s2)CC1 (relative stereo) [Compound 13, 5-(4-Tert-butyl-cyclohex-1-enyl)-3-[(trans-4-hydroxy-cyclohexyl)-(trans-4-methyl-cyclohexanecarbonyl)-amino]-thiophene-2-carboxylic acid] | < 5 µM |
| C[C@H]1CC[C@H](C(=O)N(c2cc(C3=CCCCC3)sc2C(=O)O)C2CCC(OC(=O)N3CCOCC3)CC2)CC1 (relative stereo) [Compound 18, Morpholine-4-carboxylic acid 4-[(2-carboxy-5-cyclohex-1-enyl-thiophen-3-yl)-(trans-4-methyl-cyclohexanecarbonyl)-amino]-cyclohexyl ester] | < 5 µM |
| COC(=O)C(NC(=O)O[C@H]1CC[C@H](N(c2cc(C3=CCCCC3)sc2C(=O)O)C(=O)[C@H]2CC[C@H](C)CC2)CC1)C(C)C (relative stereo) [Compound 19, 5-Cyclohex-1-enyl-3-[[trans-4-(1-methoxycarbonyl-2-methyl-propylcarbamoyloxy)-cyclohexyl]-(trans-4-methyl-cyclohexanecarbonyl)amino]-thiophene-2-carboxylic acid] | < 5 µM |
| CN1C(=O)N(C)C2(CCC(N(c3cc(C4=CCCCC4)sc3C(=O)O)C(=O)[C@H]3CC[C@H](C)CC3)CC2)C1=O (relative stereo) [Compound 32, 5-cyclohex-1-enyl-3-[(1,3-dimethyl-2,4-dioxo-1,3-diaza-spiro[4.5]dec-8-yl)-(trans-4-methyl-cyclohexanecarbonyl)-amino]-thiophene-2-carboxylic acid] | < 5 µM |
| C[C@H]1CC[C@H](C(=O)N(c2cc(C3=CCC(Oc4ccccc4)CC3)sc2C(=O)O)[C@H]2CC[C@H](O)CC2)CC1 (relative stereo) [Compound 33, 3-[(trans-4-hydroxy-cyclohexyl)-(trans-4-methyl-cyclohexanecarbonyl)-amino]-5-(4-phenoxy-cyclohex-1-enyl)-thiophene-2-carboxylic acid] | < 5 µM |
| CC1OCC(N(c2cc(C3=CCCCC3)sc2C(=O)O)C(=O)[C@H]2CC[C@H](C)CC2)CO1 (relative stereo) [Compound 36, 5-cyclohex-1-enyl-3-[(trans-4-methyl-cyclohexanecarbonyl)-(2-methyl-[1,3]dioxan-5-yl)-amino]-thiophene-2-carboxylic acid] | < 5 µM |
